Experimental data reported in patent publication US12037361B2, “Methods for treating multidrug resistant breast cancer” (THE HONG KONG POLYTECHNIC UNIVERSITY, priority 2021, dated 2024).
Residues, ends and D or L forms follow the SMILES beside them.

Experiments:
in vivo = experiment: in vivo; parameters: species or system Balb/c mice; details: mouse, iv, 25 mg/kg
Experimental: (M) Pharmacokinetic Study of SHARPIN-Derived Peptides:
SHARPIN-derived peptides powder was dissolved in 1×PBS and administered intravenously at 25 mg/kg to overnight-starved Balb/c mice (n=3). At different time points (5, 15, 30, 60, 120, 240, 420 min), blood was collected via cardiac puncture and placed in a heparinized Eppendorf tube followed by centrifuged at 14,000 rpm for 5 min to obtain blood plasma. Plasma was stored at −80° C. until analysis. Plasma concentration data were analyzed by non-compartmental model. Area under plasma concentration-time curve (AUC), distribution half-life (t1/2α) and elimination half-life (t1/2β) were calculated by PK solution2.0 (Summit Research Service, Ashland, USA).
(O) UPLC/QQQ-MS Analysis Protocol:
Agilent 6460 Ultra Performance Liquid Chromatography-Electrospray Ionization Triple Quadrupole mass spectrometer (UPLC-QQQ-MS) was used in sample separation, peptide detection and quantification. Waters Acquity UPLC BEH Protein C4 column (1.7 μm, 2.1×100 mm) was used for separation. SHARPIN-derived peptides were separated and eluted by a gradient of water (0.1% FA, v/v) and acetonitrile (ACN) (0.1% FA, v/v) at a constant flow rate of 0.3 mL/min. During separation, an elution protocol was used as follows. Equilibration: 0 to 1 min, 5% ACN. Elution gradient: 1 to 10 min, ACN from 5 to 99%. Regeneration: 10 to 11 min, 99% ACN, then 11 to 11.5 min, ACN from 99% to 5%. Re-equilibration: 11.5 to 13 min: 5% acetonitrile. A hundred microlitres of plasma/tumor samples were added with 300 μL acetonitrile (1% formic acid (FA)) for protein and peptide precipitation. […] after centrifugation at 14,000 rpm for 10 minutes. Then the samples were reconstituted in 50% methanol (0.1% FA, v/v), filtered through a 0.22 μm nylon filter, and kept in the autosampler at 4° C. for analysis. Twenty microliters were injected into the MS. The MS was operated in positive electrospray ionization (ESI+) mode with supply of 300° C. gas temperature and sheath gas temperature, 8 L/min drying gas, and 11 L/min sheath gas flow and 3.5 kV capillary voltage. The signals of TAT-SP and DRI-TAT-SP were recorded at m/z 563 to 661 at collision energy (CE) of 15 eV and m/z 569 to 637 at CE of 20 eV, respectively. TAT-SP and DRI-TAT-SP were eluted at 4.05 and 3.86 minutes, respectively.

MCF-7 CSC = experiment: Reversal of chemoresistance in MCF-7 CSC (MTS cell viability assay); format: cell-based, human
Experimental: (L) Determination of 50% Inhibitory Concentration (IC50) by MTS Assay:
MCF-7 AC and derived cells were seeded onto 96-well plates at a density of 1×10^4 cells per well and treatments of anticancer drugs or peptides were administered accordingly. Following 72-hour incubation at 37° C. with 5% CO2, cell viability was assessed using CellTiter 96 AQueous Non-Radioactive Cell Proliferation Assay (Promega). The IC50 value was estimated from the optical density at 492 nm using GraphPad.

[1] = system: MCF7 human breast cancer xenograft; experiment: In vivo efficacy study in MCF7 breast cancer xenograft model; details: for No. of toxicity death: MCF7 xenograft nude mice, deaths/animals; for tumor volume at end of study: 20 days; for Tumor inhibition (%): 10 injections in 20 days
Experimental: Data obtained are analyzed to evaluate treatment outcomes. Tumor doubling time is calculated using tumor volumes obtained from the end of experiment versus the tumor volumes on the first day of treatment. Tumor inhibition (%) is calculated using the tumor volumes obtained from the end of experiment. Corresponding equations of determining tumor inhibition (T/C) and tumor doubling time (Td) are provided as follows:
(Q) In Vivo Efficacy Study of DRI-TAT-SP Combined with DOX in Treating MCF7 Breast Cancer Xenograft Model:
Six- to eight-week-old female Balb/c nude mice were maintained under specific pathogen-free conditions prior to in vivo efficacy study. Each animal was implanted with a piece of […] pellet 0.72 mg, 60-day release. (Cat No. SE-121, Innovative Research of America, Sarasota, FL). Four days later, the nude mice were inserted at the both flanks with a sesame sized (around 10 mm^3) MCF-7 tumor piece originated from a tumor bulk. When the tumor reached approximately 100 mm^3 (21-28 days), the mice were randomized and administered intravenously with (1) 1×PBS, (2) DOX 1.2 mg/kg, (3) DRI-TAT-SP 25 mg/kg or (4) DOX 1.2 mg/kg+DRI-TAT-SP 25 mg/kg once every 2 days for a total of 10 injections. Tumor volume was measured using digital caliper once every 4 days. Estimated tumor volume (mm^3) was calculated as ½×length (mm)×width (mm)^2. The mouse body weights were recorded once every two days. The tumor doubling time (Td) was calculated as t×log 2/log(Vf/V0), where t, Vf and V0 stand for interval time, percentage change of tumor volume on final day and percentage change of tumor volume on initial day.

FIG. 7B = experiment: FIG. 7B
Source text: Table printed on a drawing sheet, FIG. 7B
First reader's note: The table is printed as an inset in the plasma level versus time plot of DRI-TAT-SP, and the substance name is taken from the plot axis.

MRP1 = experiment: DOX accumulation assay in CSCs; format: cell-based, human; details: 5 μM DOX, 1 μM peptide for 24 hours
Experimental: (I) DOX Accumulation Assay:
To assess MRP1 activity, 2×10^5 MCF-7 AC and derived cells, with or without 24-hour incubation of 1 μM TAT-SP or TAT-SPScr, were treated with 5 μM DOX at 37° C. for 2 hours. After removal of extracellular drugs, cells were divided into two equal halves. One half was lysed with lysis buffer (isopropanol with 0.75 M HCl and 0.2% Triton X-100) at room temperature for 30 minutes; the other half was incubated with 5 μM CMFDA (Invitrogen) in darkness at room temperature for 30 minutes. The fluorescent intensities of drugs and dyes were detected with CLARIOstar (BMG LABTECH) and relative drug concentrations were normalized to CMFDA level.

CSCs = experiment: Annexin V apoptosis assay by flow cytometry in CSCs; format: cell-based, human; details: 1 μM DOX for 24 hours, 1 μM peptide
Experimental: (F) Flow Cytometry Analysis:
Cells were detached by Phosphate buffered saline (PBS) with 2.5 mM EDTA and washed with PBS. For determining CSC population, a total of 1×10^6 cells were incubated with APC-CD44 (BD Biosciences) and PE-CD24 (BD Biosciences) in FACS solution (PBS with 1% BSA and 1 mM EDTA) for 30 minutes on ice. APC-IgG2 (BD Biosciences) and PE-IgG2 (BD Biosciences) were used as isotype controls. For determining apoptotic population, a total of 1×10^6 cells were first treated with or without 1 μM DOX for 24 hours, in the absence or presence of 1 μM TAT-SP or TAT-SPScr, followed by incubation with FITC-Annexin V (BD Biosciences) and propidium iodide (PI) in binding buffer (10 mM Hepes, pH 7.4, 140 mM NaCl and 2.5 mM CaCl2) for 30 minutes on ice as per the manufacturer's instructions. For determining CRT surface localization, a total of 1×10^6 cells, treated with or without 1 μM DOX for 24 hours, were incubated with anti-CRT antibody (1:800, CST) in PBS with 3% BSA for 1 hour on ice. After washing with PBS, cells were further incubated with 2 μg/mL goat anti-rabbit Alexa Fluor 488 (Invitrogen) for 45 minutes on ice. Fluorescence signals were analyzed by BD Accuri C6 flow cytometer (BD Biosciences).

ITGA2/CRT interaction = biological target: T1, ITGA2/CRT interaction (Homo sapiens, UniProt P17301); experiment: Co-immunoprecipitation with anti-CRT antibody: competition with CRT for KXGFFKR motif of ITGA2; format: binding; details: CSC lysate immunoprecipitated with anti-CRT antibody; TAT peptides at 1 μM for 24 hours
T1 construct: endogenous in cells; host or cells: MCF-7-derived cells (lysate)
T1 sequence (P17301 30-1181): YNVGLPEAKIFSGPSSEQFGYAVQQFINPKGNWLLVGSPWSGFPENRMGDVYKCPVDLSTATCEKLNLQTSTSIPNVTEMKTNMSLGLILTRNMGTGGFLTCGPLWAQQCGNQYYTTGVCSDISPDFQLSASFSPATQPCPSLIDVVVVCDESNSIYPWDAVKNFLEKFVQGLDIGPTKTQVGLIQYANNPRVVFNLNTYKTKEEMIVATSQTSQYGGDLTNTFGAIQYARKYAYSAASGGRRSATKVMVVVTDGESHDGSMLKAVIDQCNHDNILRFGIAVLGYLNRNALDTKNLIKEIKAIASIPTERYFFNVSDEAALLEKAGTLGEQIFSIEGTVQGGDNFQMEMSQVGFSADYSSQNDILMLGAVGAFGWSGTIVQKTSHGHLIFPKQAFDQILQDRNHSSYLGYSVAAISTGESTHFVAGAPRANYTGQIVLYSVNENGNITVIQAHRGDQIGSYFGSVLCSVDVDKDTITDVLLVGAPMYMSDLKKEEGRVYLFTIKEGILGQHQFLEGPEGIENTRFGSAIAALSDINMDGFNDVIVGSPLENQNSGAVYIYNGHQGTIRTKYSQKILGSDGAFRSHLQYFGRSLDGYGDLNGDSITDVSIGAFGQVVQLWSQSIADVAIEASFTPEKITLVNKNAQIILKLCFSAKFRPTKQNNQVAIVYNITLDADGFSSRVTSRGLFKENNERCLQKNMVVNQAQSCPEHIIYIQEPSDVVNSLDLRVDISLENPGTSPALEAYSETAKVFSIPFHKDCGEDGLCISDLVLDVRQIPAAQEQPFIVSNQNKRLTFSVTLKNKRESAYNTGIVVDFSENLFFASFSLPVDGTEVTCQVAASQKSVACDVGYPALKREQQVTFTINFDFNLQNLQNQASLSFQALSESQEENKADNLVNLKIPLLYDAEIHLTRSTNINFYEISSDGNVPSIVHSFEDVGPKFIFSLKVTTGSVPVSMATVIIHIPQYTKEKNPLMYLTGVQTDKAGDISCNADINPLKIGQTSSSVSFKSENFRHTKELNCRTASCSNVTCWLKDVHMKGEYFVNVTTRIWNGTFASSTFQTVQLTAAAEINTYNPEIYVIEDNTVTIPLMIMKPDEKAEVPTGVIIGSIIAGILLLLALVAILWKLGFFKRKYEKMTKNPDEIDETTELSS
T1 sequence (P05556 21-798 partner): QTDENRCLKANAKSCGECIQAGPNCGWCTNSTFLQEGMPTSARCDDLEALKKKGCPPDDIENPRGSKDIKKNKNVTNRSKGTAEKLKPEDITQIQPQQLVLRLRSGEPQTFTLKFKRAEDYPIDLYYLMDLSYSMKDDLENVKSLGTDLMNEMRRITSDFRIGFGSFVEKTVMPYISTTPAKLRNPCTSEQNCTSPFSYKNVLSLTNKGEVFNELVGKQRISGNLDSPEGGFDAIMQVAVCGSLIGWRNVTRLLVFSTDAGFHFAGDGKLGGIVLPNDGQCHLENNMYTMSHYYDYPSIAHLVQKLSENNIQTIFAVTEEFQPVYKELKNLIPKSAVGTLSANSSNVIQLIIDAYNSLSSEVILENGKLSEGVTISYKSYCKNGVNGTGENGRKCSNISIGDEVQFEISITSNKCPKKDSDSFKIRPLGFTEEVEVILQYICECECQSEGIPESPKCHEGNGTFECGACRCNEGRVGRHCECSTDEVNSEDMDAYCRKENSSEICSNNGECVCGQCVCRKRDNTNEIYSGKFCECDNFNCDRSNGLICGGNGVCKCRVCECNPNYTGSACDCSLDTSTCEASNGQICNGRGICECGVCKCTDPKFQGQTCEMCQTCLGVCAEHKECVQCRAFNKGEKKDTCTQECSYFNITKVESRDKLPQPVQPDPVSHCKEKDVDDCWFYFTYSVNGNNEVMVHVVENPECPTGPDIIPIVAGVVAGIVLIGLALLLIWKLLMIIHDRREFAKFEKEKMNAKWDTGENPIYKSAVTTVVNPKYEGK
Experimental: Calreticulin (CRT) from MCF-7-derived cells was immunoprecipitated by anti-CRT (CST) antibody. In brief, MCF-7-derived cells, with or without 24-hour incubation of 1 μM TAT-SP or TAT-SPScr, were collected and subsequently lysed with RIPA buffer on ice for 30 minutes. The lysate was diluted 5-fold with PBS and incubated with anti-CRT antibody overnight at 4° C. with simultaneous mixing on a rotating platform, followed by further incubation of Protein-G PLUS agarose (Santa Cruz Biotechnology) at 4° C. for at least 2 hours.
After incubation, agarose beads were centrifuged and washed by PBS. Immunoprecipitated proteins were collected by treating the beads with 0.2 M glycine and subjected to Western Blotting (WB) analysis.

Akt pathway = experiment: Western blotting of p-Akt (T308) in CSCs; format: cell-based, human; details: 1 μM peptide for 24 hours
Experimental: (K) Protein Preparation and Western Blotting:
Total protein was extracted with RIPA buffer supplied with protease inhibitor (Roche), resolved in 10% SDS-PAGE and transferred onto Immobilon-P PVDF membrane (Millipore). Membranes were blocked with 5% non-fat dry milk in Tris-buffered saline with 0.1% Tween (TBST) for 2 hours, then were incubated overnight with corresponding antibodies at 4° C., followed by incubation with horseradish peroxidase-conjugated goat anti-mouse IgG (Santa Cruz Biotechnology) or goat anti-rabbit IgG (Santa Cruz Biotechnology) as appropriate, for 2 hours at room temperature in TBST. Antibody binding was detected with Pierce ECL Western Blotting Substrate (Thermo Scientific) and images were visualized with Azure C600 imaging system (Azure Biosystems). The antibodies used were anti-ITGA2 (Abcam), anti-CRT (CST), anti-ILR2 (CST), anti-MRP1/ABCC1 (CST), anti-Mdr-1 (Santa Cruz Biotechnology), anti-Akt (pan) (CST), anti-pAkt (S473) (CST), anti-pAkt (T308) (CST), p53 (Santa Cruz Biotechnology) and anti-β-actin (Santa Cruz Biotechnology).

[2] = In vivo toxicity test in Balb/c mice; details: healthy Balb/c mice, DOX 1.2 mg/kg i.v. once every two days, 10 injections
Experimental: (P) In Vivo Toxicity Test in Balb/c Mice:
Healthy female Balb/c mice (6-8 weeks old) were randomized into 3 groups and were administered with (1) DOX 1.2 mg/kg i.v., (2) DRI-TAT-SP 25 mg/kg i.v, and (3) DOX 1.2 mg/kg+DRI-TAT-SP 25 mg/kg i.v. once every two days (q2d) for 10 injections via tail vein injection. The body weight of the mice was measured once every 2 days. Any toxicity symptoms including body weight change and behavioral changes will be monitored.

[3] = MCF7 xenograft, DOX 1.2 mg/kg, DRI-TAT-SP 25 mg/kg
[4] = MCF7 xenograft, i.v. once every 2 days, DOX 1.2 mg/kg, DRI-TAT-SP 25 mg/kg

For `CC[C@@H](C)[C@@H](NC(=O)CNC(=O)[C@@H](CCCNC(=N)N)NC(=O)[C@@H](CS)NC(=O)[C@@H](CC(C)C)NC(=O)[C@@H](CS)NC(=O)[C@H](NC(=O)[C@H]1CCCN1C(=O)[C@@H](CCC(=O)O)NC(=O)[C@@H](CCCNC(=N)N)NC(C)=O)C(C)C)C(=O)N[C@@H](C(=O)N[C@H](Cc1c[nH]c2ccccc12)C(=O)N[C@H](CCCNC(=N)N)C(=O)N[C@H](CCC(N)=O)C(=O)N[C@@H](C(=O)N[C@H](C)C(=O)N1CCC[C@@H]1C(=O)N1CCC[C@@H]1C(=O)N[C@H](Cc1ccccc1)C(=O)NCC(=O)N[C@H](CC(C)C)C(=O)N[C@H](CCC(=O)O)C(=O)N[C@H](CO)C(=O)N[C@H](CCCNC(=N)N)C(=O)N[C@H](CCCNC(=N)N)C(=O)N[C@H](CCCNC(=N)N)C(=O)N[C@H](CCC(N)=O)C(=O)N[C@H](CCCNC(=N)N)C(=O)N[C@H](CCCNC(=N)N)C(=O)N[C@H](CCCCN)C(=O)N[C@H](CCCCN)C(=O)N[C@H](CCCNC(=N)N)C(N)=O)C(C)C)C(C)C` [DRI-TAT-SP, Ac-repvclcrgivwrqvappfglesrrrqrrkkr-NH2] (HELM PEPTIDE1{[ac].[dR].[dE].[dP].[dV].[dC].[dL].[dC].[dR].G.[dI].[dV].[dW].[dR].[dQ].[dV].[dA].[dP].[dP].[dF].G.[dL].[dE].[dS].[dR].[dR].[dR].[dQ].[dR].[dR].[dK].[dK].[dR].[am]}$$$$V2.0), the Cmax (in vivo; Balb/c) was 870 ng/mL, the half-life (in vivo; Balb/c, distribution half-life t1/2α) was 15.9 min and the half-life (in vivo; Balb/c, elimination half-life t1/2β) was 442 min. The “time of Cmax post administration” value (in vivo) was 5 min, the EC50 (MCF-7 CSC; MCF-7 breast CSCs, in the presence of DOX, 72-hour incubation, read-out: EC50 of reversing chemoresistance in the presence of DOX (DOX-EC50)) was 2300 ± 400 nM and the “No. of toxicity death” value [1] was 0/6. The “tumor volume at end of study” value [1, 3] was 325±135 mm^3, the “Tumor inhibition (%)” value [1, 4] was 10.1% and the “Tumor doubling time” value ([1]; MCF7 xenograft, i.v. once every 2 days, 10 injections, DOX 1.2 mg/kg, DRI-TAT-SP 25 mg/kg) was 12.9 days. The “AUC(0-obs) | ng-min/mL” value (FIG. 7B) was 118,010 ng-min/mL.
For “RKKRRQRRRSELGFPPAVQRWVIGRCLCVPER [TAT-SP]”, the DOX accumulation (MRP1) was “high level of DOX accumulation”, the “modulation of CSC chemoresistance with respect to DOX, PTX and VCR” value (MCF-7 CSC; CSCs, DOX, PTX and VCR IC50 (FIG. 5D)) was “able to modulate CSC chemoresistance” and the DOX-induced apoptosis (CSCs) was “leaves CSCs unprotected from DOX-induced apoptosis”. The “competition with CRT for the KXGFFKR motif / inhibition of immunoprecipitation of ITGA2” value (ITGA2/CRT interaction) was “compete with CRT” and the “activation of Akt pathway by ITGA2 (p-Akt T308)” value (Akt pathway) was “inhibits the activation of Akt pathway”.
With `COc1cccc2c1C(=O)c1c(O)c3c(c(O)c1C2=O)C[C@@](O)(C(=O)CO)C[C@@H]3O[C@H]1C[C@H](N)[C@H](O)[C@H](C)O1` [Doxorubicin, reference compound] the “No. of toxicity death” value [1] was 0/8, the “tumor volume at end of study” value [1, 3] was 270±73 mm^3 and the “Tumor inhibition (%)” value [1, 4] was 21.5%. The body weight change [2] was “+0.6±2.4%”.
For “SELGFPPAVQRWVIGRCLCVPER [SP, peptide derived from the UBL domain of SHARPIN (residues 259-281)]”, the “competition with CRT for the KXGFFKR motif / inhibition of immunoprecipitation of ITGA2” value (ITGA2/CRT interaction) was “compete with CRT”.
